# Experiments:
# [1] = Phase 1 maximum tolerated dose (MTD) in mice, oral gavage; format: in vivo; settings: 1,000 mg/kg, male mice
# Protocol: (§1) Male mice were randomized and assessed in two phases: 1) for maximum tolerated doses (MTDs) of PrC-210, DzCH2SH, and 2Pip-2PrSH to determine dose levels for the efficacy study and 2) to evaluate the efficacy of the compounds when administered 60+5 minutes prior to exposure to total body irradiation (TBI) at an LD100/30 dose (990 cGy) (Tables 1 and 2).
# (§2) For Phase 1 or 2, sterile water (vehicle), PrC-210, DzCH2SH, and 2Pip2PrSH were administered at 10 mL/kg calculated based on the most recent body weight via oral gavage. Animals were not fasted prior to administration of the compounds or vehicle. Mice in Phase 1 were administered the dose on Day 1 and mice in Phase 2 were administered the dose 60+5 minutes prior to TBI on Day 0.
# (§3) All surviving animals were observed once daily for clinical signs (e.g., unusually low or high activity, lethargy, shivering, appearance of fur, bloody and water stool, and other symptoms of moribundity) at 1-2 hours post-irradiation and/or post-dose and once daily on non-dosing days until Day 4 (Phase 1) or Day 30 (Phase 2).
# In Phase 1 (Table 1), all animals were normal when observed and all body weights were within normal range. The dose level of 1000 mg/kg was selected for Phase 2.
# [2] = tested on: male mice exposed to total body irradiation (TBI); test: Phase 2 efficacy: survival of mice dosed prior to total body irradiation (TBI) at LD100/30; format: in vivo; settings: for median survival time / animals survived until scheduled sacrifice (Day 30) / mice found dead / mice moribund sacrificed: 1000 mg/kg oral gavage prior to TBI 9.9 Gy; for median survival time: 11 male mice per group; for body weight gain: Days 5 to 9 after TBI 9.9 Gy, compared to the vehicle group; for survival of animals through 30 days post exposure: treated prior to total body irradiation (LD100/30)
# Protocol: as §1, §2
# Irradiation was administered once to the whole body. TBI of mice were performed using a 6 MV LINAC photon source (TrueBeam STx source). Animals were irradiated at a dose rate of up to 80 cGy/min to the midline of the animals. The source irradiated animals to 50% of the dose from anterior-posterior direction and […] from the posterior-anterior direction. Dose measurements were performed with a PTW 31010 0.1 cc Semiflex Ion chamber.
# as §3
# In Phase 2 (Table 2), survival curves of mice treated with vehicle, PrC-210, DzCH2SH or 2Pip-PrSH prior to TBI with 9.9 Gy were measured (FIG. 1). […] Five mice were moribund sacrificed, and 6 mice were found dead. Survival in the Group 13 animals was 0% and median survival time was 8 days. In mice administered with PrC-210 before TBI (Group 14), 4 animals survived until scheduled sacrifice (Day 30) while 7 mice were moribund sacrificed. […] In mice administered with DzCH2SH before TBI (Group 15), 3 animals survived until scheduled sacrifice (Day 30) while 7 mice were moribund sacrificed, and one mouse was found dead. […] Five mice were moribund sacrificed and six mice were found dead. Survival in the Group 16 mice was 0% and median survival time was 10 days.
# [3] = Exposure of the solid salt to the atmosphere (hygroscopicity); format: physicochemical; settings: 10 minute exposure of a small amount to the atmosphere, diHCl salt
# Protocol: Concentration (rotary evaporator at ambient temperature) provided a crude oily residue which was triturated with hexane producing a white solid. The hexane was removed (via pipette suction) and replaced with dry THE (25 ml). After an additional 10 minutes of trituration, the THF was removed and replaced with dry hexane (25 ml). After an additional 10 minutes of trituration, the hexane was removed and the resulting white solid was dried in vacuo over P2O5 providing 1.95 grams of diHCl salt of PrC-210 (88%).
# In Reaction J: 34 ml of HCl in methanol, 6 eq. (1.25 M solution, Aldrich Cat #17935) was added to a solution of compound X, 2.5 grams, 0.007 moles dissolved in 10 mL dry methanol in a flask under argon and equipped for magnetic stirring and the reaction was stirred at room temperature for 24 hours. […] The solution was degassed by gently bubbling argon into the solution for 30 minutes. […]
# In Reaction P: Compound XVI, 2.2 grams, 0.0058 moles was placed in a round-bottom flask equipped for magnetic stirring followed by 15 mL anhydrous trifluoroacetic acid (CF3COOH, Aldrich #8.08260). The flask was fitted with a condenser and the solution was refluxed for 5 hours whereupon it was determined that the reaction was complete using TLC by observing the disappearance of starting material and the appearance of a highly polar product, which stained positive with ninhydrin. […]
# [4] = tested on: mice exposed to 8 Gy (LD100) radiation; test: Protection of mice from lethal radiation (8 Gy, LD100); format: in vivo; settings: oral gavage 15-90 minutes prior to 8 Gy (LD100), 60 days post irradiation
# Protocol: The radioprotective efficacy of the thiols, prodrugs and double prodrugs according to this disclosure is assessed in mice. The compounds of the disclosure are administered via oral gavage to mice, and are compared to mice that have been administered 3-(methylamino)-2-(methylaminomethyl)propane-1-thiol (PrC-210), as well as to a control group or mice that are administered vehicle (i.e., containing no radioprotective additive).
# More specifically, mice are assigned to three groups (Groups 1, 2 and 3). A control group, Group 1, is treated via oral gavage with vehicle (Lactated Ringer's and 5% dextrose, adjusted to pH 7.3 with sodium bicarbonate) 15-90 minutes prior to a dose of 8 Gy (LD100) radiation. Group 2 is treated via oral gavage with PrC-210, as a positive control, dissolved in Lactated Ringer's at a dose of 200 mg/kg 15-90 minutes prior to irradiation with 8 Gy (LD100). Group 3 is treated via oral gavage with compound 1 (PrC-210-PT) dissolved in Lactated Ringer's at a dose of 308 mg/kg 15-90 minutes prior to irradiation with 8 Gy (LD100). The mortality of the three groups is assessed for 60 days post irradiation. The experiment is repeated with doses of PrC-210 ranging from 200 mg/kg to 450 mg/kg. Molar equivalent dosages of the test compound (compound 1, Prc-210-PT) to PrC-210 are also assessed.
# The experiment is repeated to assess the efficacy of compounds 2-23 as radioprotectors.
# [5] = tested on: mice exposed to whole body irradiation; test: Radiation dose required to kill 50% of mice (LD50), whole body irradiation; format: in vivo; settings: oral gavage 60 minutes prior to whole body irradiation 2-12 Gy, 30 days
# Protocol: The affect of the compounds according to the disclosure on the dose of radiation required to kill 50% of mice (LD50) is assessed.
# Mice are assigned to three groups (Groups 1, 2 and 3). A control group, Group 1, is treated via oral gavage with vehicle (Lactated Ringer's and 5% dextrose, adjusted to pH 7.3 with sodium bicarbonate) 60 minutes prior to whole body irradiation (2 Gy). Group 2 is treated via oral gavage with PrC-210, as a positive control, dissolved in Lactated Ringer's at a dose of 200 mg/kg 60 minutes prior to whole body irradiation (2 Gy). Group 3 is treated via oral gavage with compound 1 (PrC-210-PT) dissolved in Lactated Ringer's at a dose of 308 mg/kg 60 minutes prior to whole body irradiation (2 Gy). The mortality of the three groups is assessed for 30 days post irradiation.
# The experiment is repeated using varying radiation doses of 4, 6, 8, 10 and 12 Gy. The LD50 for each group was determined.
# The experiment is repeated to assess compounds 2-23 as radioprotectors.
# [6] = in vivo; cited from earlier work
# [7] = clinical signs after TBI 9.9 Gy, of 11 mice
smiles,measurement,setting,value
"CC(C)(S)C1CNCCN1 (stereo not drawn) [Compound 2Pip-2PrSH, 2-(piperazin-2-yl)propane-2-thiol]",toxicity at the highest tested dose,[1],did not produce any toxicity
same,Survival,"[2]; 1000 mg/kg oral gavage 60+5 minutes prior to TBI 9.9 Gy (LD100/30), Day 30, 11 male mice per group",0%
same,median survival time,[2],10 days
same,animals survived until scheduled sacrifice (Day 30),[2]; of 11 mice,no animals survived
same,mice found dead,[2]; of 11 mice,six
same,mice moribund sacrificed,[2]; of 11 mice,Five
same,body weight gain,[2],did not gain body weights
same,"Cold to touch skin, number of animals",[2]; [7],4
same,"Eye discharge, number of animals",[2]; [7],one
same,"Hypoactivity, number of animals",[2]; [7],5
same,"Lethargy and swollen head, number of mice",[2]; [7],one
same,"Swollen eye, number of animals",[2]; [7],one
"SCC1CNCCNC1 [DzCH2SH, (1,4-diazepan-6-yl)methanethiol]",toxicity at the highest tested dose,[1],did not produce any toxicity
same,median survival time,[2],11 days
same,animals survived until scheduled sacrifice (Day 30),[2]; of 11 mice,3
same,mice found dead,[2]; of 11 mice,one
same,mice moribund sacrificed,[2]; of 11 mice,7
same,mortality rate at 8-days post-irradiation,[2]; 1000 mg/kg oral gavage prior to TBI 990 cGy,efficacious effects
same,body weight gain,[2],did not gain body weights
same,"Cold to touch skin, number of animals",[2]; [7],one
same,"Eye discharge, number of animals",[2]; [7],2
same,"Eye opacity, number of mice",[2]; [7],one
same,"Hypoactivity, number of animals",[2]; [7],5
same,"Labored breathing, number of mice",[2]; [7],one
same,"Lethargy and swollen head, number of mice",[2]; [7],one
same,"Swollen eye, number of animals",[2]; [7],2
same,"eye cloudy, number of animals",[2]; [7],2
same,"sunken eye, number of animals",[2]; [7],1
same,survival of animals through 30 days post exposure,[2],increased survival
same,signs of hygroscopicity,[3],did not show any signs of hygroscopicity
"CNCC(CS)CNC [PrC-210, 3-(methylamino)-2-((methylamino)methyl)propane-1-thiol, reference compound]",toxicity at the highest tested dose,[1],did not produce any toxicity
same,median survival time,[2],11 days
same,animals survived until scheduled sacrifice (Day 30),[2]; of 11 mice,4
same,mice moribund sacrificed,[2]; of 11 mice,7
same,mean body weight,[2]; Day 9 after TBI 9.9 Gy,"higher than body weights in the Groups 13, 15 and 16"
same,body weight gain,[2],significantly higher
same,"Eye discharge, number of animals",[2]; [7],one
same,"Hypoactivity, number of animals",[2]; [7],5
same,"Swollen eye, number of animals",[2]; [7],one
same,"Tremor, number of mice",[2]; [7],4
same,survival of animals through 30 days post exposure,[2],increased survival
same,signs of hygroscopicity,[3],did not show any signs of hygroscopicity
same,"rate of survival, control group versus treated mice",[4],control group demonstrates a reduced rate of survival compared to the mice treated
same,"LD50 (radiation dose), control group versus treated mice",[5],control group demonstrates a lower LD50 compared to the mice treated
same,side effects compared with Amifostine,[6],less side effects than Amifostine

# Source: patent publication US11566032B2, “Radio-protective and chemo-protective substituted thiols” (TONIX PHARMACEUTICALS, INC., priority 2020, dated 2023)
